Measured values published in US11708367B2, “Compounds for the treatment of kinase-dependent disorders” (Exelixis, Inc., priority 2018, dated 2023).

What was measured:
Format in all cases: cell-based
AXL = AXL (Homo sapiens (Human), UniProt P30530); assay: AXL autophosphorylation ELISA in A-172 cells; settings: cellular, Gas6-stimulated, phospho-AXL ELISA
Experimental: A-172 glioblastoma cells (ATCC #CRL-1620) were seeded at 2.5×10^5 cells/well onto 24-well plates (Greiner #662165), in DMEM (Thermo Fisher #11995-040) containing 10% FBS (Thermo Fisher #26140-079), 1% MEM NEAA (Thermo Fisher #11140-050), 1% GlutaMax (Thermo Fisher #35050-061), and 1% Penicillin Streptomycin (Thermo Fisher #15140-122). A-172 cells were incubated at 37° C., 5% CO2 for 24 h and then starved for 24 h in serum-free medium. Test compounds were serially diluted to produce an 8-point dose curve in fresh serum-free medium to a final concentration of 0.3% DMSO (vehicle) and added to the cells and incubated for 1 h. Cells were then stimulated with 1 μg/mL recombinant human Gas6 (R&D Systems #885-GSB-500) for 15 min, washed with cold PBS, and immediately lysed with 150 μL of cold IX lysis buffer [20 mM Tris, 137 mM sodium chloride, 2 mM EDTA, 10% glycerol, 1% NP-40 alternative, 1 mM activated sodium orthovanadate, 1 mM PefaBloc SC (Sigma-Aldrich #11429868001), protease/phosphatase inhibitor tablet (Thermo Fisher #A32959)]. Lysates were collected and 100 μL/well added into the human phospho-AXL Duo Set IC ELISA (R&D Systems #DYC2228-2). Assay was performed according to manufacturer's instructions and sample phospho-AXL concentrations were extrapolated using human phospho-AXL control (R&D Systems #841645) as a standard. Positive control wells (100% activity) contained Gas6-stimulated, DMSO-treated cell lysates. Negative control wells (0% activity) contained Gas6-stimulated, reference inhibitor-treated cell lysates. IC50 values were calculated by nonlinear regression analysis using a 4-parameter logistic curve fit in ActivityBase XL (IDBS).

Met = Met (Homo sapiens (Human), UniProt P08581); assay: Met autophosphorylation ELISA in PC-3 cells; settings: cellular, HGF-stimulated, phospho-Met ELISA, read-out: c-Met IC50
Experimental: PC-3 prostate cancer cells (ATCC #CRL-1435) were seeded at 4×10^4 cells/well onto 24-well plates (Greiner #662165), in DMEM (Thermo Fisher #11995-040) containing 10% FBS (Thermo Fisher #26140-079), 1% MEM NEAA (Thermo Fisher #11140-050), 1% GlutaMax (Thermo Fisher #35050-061), and 1% Penicillin Streptomycin (Thermo Fisher #15140-122). PC-3 cells were incubated at 37° C., 5% CO2 for 24 h and then starved for 3 h in serum-free medium. Test compounds were serially diluted to produce an 8-point dose curve in fresh serum-free medium to a final concentration of 0.3% DMSO (vehicle) and added to the cells and incubated for 1 h. Cells were then stimulated with 100 ng/mL recombinant human HGF (R&D Systems #294-HG-250) for 10 min, washed with cold PBS, and immediately lysed with 130 μL of cold IX lysis buffer [20 mM Tris, 137 mM sodium chloride, 2 mM EDTA, 10% glycerol, 1% NP-40 alternative, 1 mM activated sodium orthovanadate, 1 mM PefaBloc SC (Sigma-Aldrich #11429868001), protease/phosphatase inhibitor tablet (Thermo Fisher #A32959)]. Lysates were clarified by centrifugation and 100 μL/well added into the PathScan phospho-Met (panTyr) Sandwich ELISA (Cell Signaling Technology #7333). Assay was performed according to manufacturer's instructions. Positive control wells (100% activity) contained HGF-stimulated, DMSO-treated cell lysates. Negative control wells (0% activity) contained HGF-stimulated, reference inhibitor-treated cell lysates. IC50 values were calculated by nonlinear regression analysis using a 4-parameter logistic curve fit in ActivityBase XL (IDBS).

KDR = KDR (Homo sapiens (Human), UniProt P35968); assay: KDR autophosphorylation ELISA in HUVEC cells; settings: cellular, VEGF165-stimulated, phospho-KDR ELISA
Experimental: Human umbilical vein endothelial cells or HUVEC (Lonza #C2519A) were seeded at 2×10^4 cells/well onto 96-well plates (Corning #3904), in EGM-2 growth medium (Lonza #CC-3162) containing 1% Penicillin Streptomycin (Thermo Fisher #15140-122). HUVEC cells were incubated at 37° C., 5% CO2 for 24 h and then starved for 24 h in serum-free EBM-2 basal medium (Lonza #CC-3156) containing 1% Penicillin Streptomycin. Test compounds were serially diluted to produce an 8-point dose curve in fresh serum-free medium to a final concentration of 0.3% DMSO (vehicle) and added to the cells and incubated for 1 h. Cells were then stimulated with 100 ng/mL recombinant human VEGF165 (R&D Systems #293-VE-500) for 5 min, washed with cold PBS, and immediately lysed with 130 μL of cold 1× lysis buffer [20 mM Tris, 137 mM sodium chloride, 2 mM EDTA, 10% glycerol, 1% NP-40 alternative, 1 mM activated sodium orthovanadate, 1 mM PefaBloc SC (Sigma-Aldrich #11429868001), protease/phosphatase inhibitor tablet (Thermo Fisher #A32959)]. Lysates were collected and 100 μL/well added into the human phospho-KDR Duo Set IC ELISA (R&D Systems #DYC 1766-2). Assay was performed according to manufacturer's instructions and sample phospho-KDR concentrations were extrapolated using human phospho-KDR control (R&D Systems #841421) as a standard. Positive control wells (100% activity) contained VEGF165-stimulated, DMSO-treated cell lysates. Negative control wells (0% activity) contained non-stimulated cell lysates. IC50 values were calculated by nonlinear regression analysis using a 4-parameter logistic curve fit in ActivityBase XE (IDBS).

Chain of KDR (P35968 20-1356): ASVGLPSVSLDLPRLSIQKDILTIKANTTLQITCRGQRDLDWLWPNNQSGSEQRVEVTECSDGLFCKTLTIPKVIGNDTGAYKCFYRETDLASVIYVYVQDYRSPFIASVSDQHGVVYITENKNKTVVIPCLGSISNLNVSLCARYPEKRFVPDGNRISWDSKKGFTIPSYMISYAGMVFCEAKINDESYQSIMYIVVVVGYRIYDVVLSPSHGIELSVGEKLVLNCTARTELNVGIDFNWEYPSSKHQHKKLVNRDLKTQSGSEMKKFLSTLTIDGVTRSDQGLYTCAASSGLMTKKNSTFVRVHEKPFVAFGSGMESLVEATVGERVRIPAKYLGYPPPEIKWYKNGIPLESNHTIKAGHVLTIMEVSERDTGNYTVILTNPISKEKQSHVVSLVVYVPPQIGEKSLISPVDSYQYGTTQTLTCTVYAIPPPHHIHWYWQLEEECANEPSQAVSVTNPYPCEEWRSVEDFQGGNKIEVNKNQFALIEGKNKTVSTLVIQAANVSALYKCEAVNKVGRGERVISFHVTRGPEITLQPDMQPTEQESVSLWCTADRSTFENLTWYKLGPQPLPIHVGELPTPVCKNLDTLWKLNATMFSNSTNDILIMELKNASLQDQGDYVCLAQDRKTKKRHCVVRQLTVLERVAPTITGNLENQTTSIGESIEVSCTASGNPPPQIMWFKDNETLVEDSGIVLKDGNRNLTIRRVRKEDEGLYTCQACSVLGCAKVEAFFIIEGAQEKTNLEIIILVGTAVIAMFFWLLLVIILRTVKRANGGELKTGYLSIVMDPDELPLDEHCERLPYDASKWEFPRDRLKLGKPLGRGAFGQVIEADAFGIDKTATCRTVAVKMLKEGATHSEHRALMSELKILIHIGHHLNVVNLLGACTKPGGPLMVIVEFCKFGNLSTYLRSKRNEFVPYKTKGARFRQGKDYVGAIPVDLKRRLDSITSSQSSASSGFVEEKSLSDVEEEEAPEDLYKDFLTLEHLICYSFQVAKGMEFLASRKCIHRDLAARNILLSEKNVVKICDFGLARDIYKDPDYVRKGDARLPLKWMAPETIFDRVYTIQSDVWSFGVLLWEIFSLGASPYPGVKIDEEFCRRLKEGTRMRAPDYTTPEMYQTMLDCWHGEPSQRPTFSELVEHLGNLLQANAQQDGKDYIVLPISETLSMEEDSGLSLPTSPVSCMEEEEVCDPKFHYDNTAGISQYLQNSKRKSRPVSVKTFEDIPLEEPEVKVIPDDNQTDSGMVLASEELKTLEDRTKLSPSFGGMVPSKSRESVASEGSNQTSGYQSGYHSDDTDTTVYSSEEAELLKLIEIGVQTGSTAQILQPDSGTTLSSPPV
Chain of AXL (P30530 26-894): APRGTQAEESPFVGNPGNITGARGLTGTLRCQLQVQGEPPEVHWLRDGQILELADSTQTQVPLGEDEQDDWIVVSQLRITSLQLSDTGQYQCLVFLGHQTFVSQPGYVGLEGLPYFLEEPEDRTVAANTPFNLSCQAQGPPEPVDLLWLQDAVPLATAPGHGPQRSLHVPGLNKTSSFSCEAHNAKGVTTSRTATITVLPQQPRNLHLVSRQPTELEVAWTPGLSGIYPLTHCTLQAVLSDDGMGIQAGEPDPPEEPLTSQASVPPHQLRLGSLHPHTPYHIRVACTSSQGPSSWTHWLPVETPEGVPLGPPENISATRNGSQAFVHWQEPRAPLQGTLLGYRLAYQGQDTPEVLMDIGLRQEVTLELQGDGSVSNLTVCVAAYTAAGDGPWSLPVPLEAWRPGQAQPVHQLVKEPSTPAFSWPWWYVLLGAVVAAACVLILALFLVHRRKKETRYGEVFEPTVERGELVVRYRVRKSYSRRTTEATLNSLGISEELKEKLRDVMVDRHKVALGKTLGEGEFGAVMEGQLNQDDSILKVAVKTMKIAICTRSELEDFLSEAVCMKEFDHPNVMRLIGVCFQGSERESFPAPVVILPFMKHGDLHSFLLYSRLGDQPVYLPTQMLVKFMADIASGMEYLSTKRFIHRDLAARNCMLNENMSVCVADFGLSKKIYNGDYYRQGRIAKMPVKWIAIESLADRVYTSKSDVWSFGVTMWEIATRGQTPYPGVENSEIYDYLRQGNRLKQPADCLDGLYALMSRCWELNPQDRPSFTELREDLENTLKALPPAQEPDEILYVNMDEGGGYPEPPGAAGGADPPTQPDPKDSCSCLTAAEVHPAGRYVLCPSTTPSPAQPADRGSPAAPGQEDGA
Chain of Met (P08581 25-1390): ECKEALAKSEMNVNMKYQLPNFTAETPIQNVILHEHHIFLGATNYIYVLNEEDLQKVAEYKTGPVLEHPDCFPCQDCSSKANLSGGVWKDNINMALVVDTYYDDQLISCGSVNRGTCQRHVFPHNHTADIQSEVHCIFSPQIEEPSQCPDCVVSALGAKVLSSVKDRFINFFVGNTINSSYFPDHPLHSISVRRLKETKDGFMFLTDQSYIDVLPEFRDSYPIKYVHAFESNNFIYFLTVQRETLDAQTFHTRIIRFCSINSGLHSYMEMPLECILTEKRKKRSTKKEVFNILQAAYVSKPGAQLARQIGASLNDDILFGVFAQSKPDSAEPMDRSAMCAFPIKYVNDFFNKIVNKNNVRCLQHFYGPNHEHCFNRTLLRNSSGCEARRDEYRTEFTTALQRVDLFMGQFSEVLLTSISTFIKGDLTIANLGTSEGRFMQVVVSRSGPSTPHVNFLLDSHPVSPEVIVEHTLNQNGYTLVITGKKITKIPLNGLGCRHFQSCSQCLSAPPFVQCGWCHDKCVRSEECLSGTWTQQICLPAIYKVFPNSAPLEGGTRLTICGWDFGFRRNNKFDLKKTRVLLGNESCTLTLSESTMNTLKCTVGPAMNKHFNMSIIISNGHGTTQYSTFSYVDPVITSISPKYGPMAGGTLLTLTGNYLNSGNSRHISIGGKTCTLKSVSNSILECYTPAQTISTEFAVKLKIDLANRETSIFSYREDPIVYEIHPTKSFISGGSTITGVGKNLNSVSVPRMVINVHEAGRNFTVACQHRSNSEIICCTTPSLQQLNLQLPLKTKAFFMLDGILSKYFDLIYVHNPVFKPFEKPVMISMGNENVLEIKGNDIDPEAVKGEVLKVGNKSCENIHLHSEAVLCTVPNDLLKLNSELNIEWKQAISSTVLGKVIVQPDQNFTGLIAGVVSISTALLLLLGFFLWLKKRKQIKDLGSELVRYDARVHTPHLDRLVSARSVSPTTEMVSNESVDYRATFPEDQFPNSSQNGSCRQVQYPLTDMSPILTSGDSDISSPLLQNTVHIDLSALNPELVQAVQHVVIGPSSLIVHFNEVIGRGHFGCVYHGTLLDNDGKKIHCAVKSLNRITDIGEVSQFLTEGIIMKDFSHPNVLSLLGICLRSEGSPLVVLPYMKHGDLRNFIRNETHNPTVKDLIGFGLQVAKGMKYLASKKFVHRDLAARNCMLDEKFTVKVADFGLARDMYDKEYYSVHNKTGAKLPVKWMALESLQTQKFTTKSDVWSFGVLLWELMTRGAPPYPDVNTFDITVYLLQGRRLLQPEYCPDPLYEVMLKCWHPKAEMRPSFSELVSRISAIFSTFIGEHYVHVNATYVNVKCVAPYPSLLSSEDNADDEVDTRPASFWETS

| SMILES | IC50 (AXL) [nM] | IC50 (Met) [nM] | IC50 (KDR) [nM] |
| --- | --- | --- | --- |
| COc1cnc2c(Oc3cc(F)c(NC(=O)C4(C(=O)Nc5ccc(F)cc5)CC4)cc3F)ccnc2c1 [Compound 176, 1-N′-[2,5-difluoro-4-[(7-methoxy-1,5-naphthyridin-4-yl)oxy]phenyl]-1-N-(4-fluorophenyl)cyclopropane-1,1-dicarboxamide] | ≤ 10 | 10 to 100 | 100 to 300 |
| CNC(=O)c1nc2c(Oc3ccc(NC(=O)C4(C(=O)Nc5ccc(F)cc5)CC4)cc3F)ccnc2cc1OC [Compound 173, 1-N′-[3-fluoro-4-[[7-methoxy-6-(methylcarbamoyl)-1,5-naphthyridin-4-- yl]oxy]phenyl]-1-N-(4-fluoro-phenyl)cyclopropane-1,1-dicarboxamide] | 100 to 300 | 100 to 300 | 100 to 300 |
| COc1cc2nccc(Oc3ccc(NC(=O)C4(C(=O)Nc5ccc(F)cc5)CC4)cc3Cl)c2nc1C(N)=O [Compound 169, 1-N′-[4-[(6-carbamoyl-7-methoxy-1,5-naphthyridin-4-yl)oxy]-3-chlorophenyl]-1-N-(4-fluorophenyl)cyclo-propane-1,1-dicarboxamide] | 10 to 100 | 10 to 100 | 10 to 100 |
| O=C(Nc1ccc(F)cc1)C1(C(=O)Nc2ccc(Oc3ccnc4cc5c(nc34)OCCO5)c(Cl)c2)CC1 [Compound 159, 1-N′-[3-chloro-4-(2,3-dihydro-[1,4]dioxino[2,3-b][1,5]naphthyridin-6-yloxy)phenyl]-1-N-(4-fluorophenyl)cyclopropane-1,1-dicarboxamide] | > 300 | 100 to 300 | > 300 |
| O=C(Nc1ccc(F)cc1)C1(C(=O)Nc2ccc(Oc3ccnc4cc5c(nc34)OCCO5)cc2)CC1 [Compound 157, 1-N-[4-(2,3-dihydro-[1,4]dioxino[2,3-b][1,5]naphthyridin-6-yloxy)phenyl]-1-N′-(4-fluorophenyl)cyclopropane-1,1-dicarboxamide] | > 300 | > 300 | > 300 |
| COc1cc2nccc(Oc3ccc(NC(=O)C4(C(=O)Nc5ccc(F)cc5)CC4)cc3)c2nc1C(N)=O [Compound 167, 1-N-[4-[(6-carbamoyl-7-methoxy-1,5-naphthyridin-4-yl)oxy]phenyl]-1-N′-(4-fluorophenyl)cyclopropane-1,1-dicarboxamide] | 100 to 300 | > 300 | > 300 |
| Cn1cc(-c2ccc3ncnc(Oc4ccc(NC(=O)C5(C(=O)Nc6ccc(F)cc6)CC5)cc4)c3c2)cn1 [Compound 126, 1-N′-(4-fluorophenyl)-1-N-[4-[6-(1-methylpyrazol-4-yl)quinazolin-4-yl]oxyphenyl]cyclo-propane-1,1-dicarboxamide] | 100 to 300 | > 300 | > 300 |
| COCCOc1cc2ncnc(Oc3ccc(NC(=O)C4(C(=O)Nc5ccc(F)cc5)CC4)cc3)c2nc1OC [Compound 78, 1-N′-(4-fluorophenyl)-1-N-[4-[6-methoxy-7-(2-methoxyethoxy)pyrido[3,2-d]pyrimidin-4-yl]oxyphenyl]cyclopropane-1,1-dicarboxamide] | 10 to 100 | 100 to 300 | ≤ 10 |
| COc1cc2nccc(Oc3ccc(NC(=O)C4(C(=O)Nc5ccc(F)cc5)CC4)cc3)c2nc1C#N [Compound 164, 1-N-[4-[(6-cyano-7-methoxy-1,5-naphthyridin-4-yl)oxy]phenyl]-1-N′-(4-fluoro-phenyl)cyclopropane-1,1-dicarboxamide] | 100 to 300 | > 300 | 100 to 300 |
| O=C(Nc1ccc(F)cc1)C1(C(=O)Nc2ccc(Oc3ccnc4cc5c(nc34)OCCO5)c(F)c2)CC1 [Compound 158, 1-N′-[4-(2,3-dihydro-[1,4]dioxino[2,3-b][1,5]naphthyridin-6-yloxy)-3-fluorophenyl]-1-N-(4-fluorophenyl)cyclo-propane-1,1-dicarboxamide] | > 300 | > 300 | > 300 |
| COc1cc(NC(=O)C2(C(=O)Nc3ccc(F)cc3)CC2)ccc1Oc1ncnc2cc(OCCCN3CCOCC3)c(OC)nc12 [Compound 74, 1-N-(4-fluorophenyl)-1-N′-[3-methoxy-4-[6-methoxy-7-(3-morpholin-4-ylpropoxy)pyrido[3,2-d]pyrimidin-4-yl]oxyphenyl]cyclopropane-1,1-dicarboxamide] | 100 to 300 | > 300 | 10 to 100 |
| COc1nc2c(Oc3cc(F)c(NC(=O)C4(C(=O)Nc5ccc(F)cc5)CC4)cc3F)ccnc2cc1OCCN1CCOCC1 [Compound 153, 1-N′-[2,5-difluoro-4-[[6-methoxy-7-(2-morpholin-4-ylethoxy)-1,5-naphthyridin-4-yl]oxy]phenyl]-1-N-(4-fluorophenyl)cyclo-propane-1,1-dicarboxamide] | ≤ 10 | 10 to 100 | ≤ 10 |
| COc1cc2nccc(Oc3ccc(NC(=O)C4(C(=O)Nc5ccc(F)cc5)CC4)cc3F)c2nc1C(N)=O [Compound 168, 1-N′-[4-[(6-carbamoyl-7-methoxy-1,5-naphthyridin-4-yl)oxy]-3-fluoro-phenyl]-1-N-(4-fluorophenyl)cyclopropane-1,1-dicarboxamide] | > 300 | 100 to 300 | > 300 |
| COc1cc2nccc(Oc3ccc(NC(=O)C4(C(=O)Nc5ccc(F)cc5)CC4)cc3Cl)c2nc1C#N [Compound 166, 1-N′-[3-chloro-4-[(6-cyano-7-methoxy-1,5-naphthyridin-4-yl)oxy]phenyl]-1-N-(4-fluorophenyl)cyclopropane-1,1-dicarboxamide] | 100 to 300 | 100 to 300 | 10 to 100 |
| CNC(=O)c1nc2c(Oc3ccc(NC(=O)C4(C(=O)Nc5ccc(F)cc5)CC4)cc3)ccnc2cc1OC [Compound 172, 1-N′-(4-fluorophenyl)-1-N-[4-[[7-methoxy-6-(methyl-carbamoyl)-1,5-naphthyridin-4-yl]oxy]phenyl]cyclo-propane-1,1-dicarboxamide] | 100 to 300 | > 300 | > 300 |
| COc1cc2nccc(Oc3ccc(NC(=O)C4(C(=O)Nc5ccc(F)cc5)CC4)cc3)c2nc1-c1ccnn1C [Compound 184, 1-N′-(4-fluorophenyl)-1-N-[4-[[7-methoxy-6-(2-methyl-pyrazol-3-yl)-1,5-naphthyridin-4-yl]oxy]phenyl]cyclo-propane-1,1-dicarboxamide] | > 300 | > 300 | > 300 |
